{"source": "patent US20130045203A1", "about": "“Uses of Noscapine and Derivatives in Subjects Diagnosed with FAP” (EMORY UNIVERSITY, priority 2010, published 2013)", "key": {"Apc^Min/+ MEFs [1]": {"system": "Apc^Min/+ MEFs", "assay": "FACS analysis of DNA content", "type": "cell-based, mouse"}, "[2]": {"assay": "Toxicology: histopathology, organ function, hematology", "type": "in vivo, mouse", "description": "Hematoxylin and eosin stained 5 μm sections of paraffin-embedded brain, lung, liver, kidney, thymus, spleen, heart, and sciatic nerve tissues were analyzed. […] Organ associated toxicity was assessed by measuring organ functions in vehicle-treated and 9-bromonoscapine treated groups. Liver function tests (total bilirubin, alanine transaminase, aspartate aminotransferase, and alkaline phosphate levels) and renal functions tests (blood urea nitrogen and creatinine levels) were similar between drug treated and vehicle-treated groups."}, "Apc^Min/+ MEFs [3]": {"system": "Apc^Min/+ MEFs", "assay": "Confocal microscopy of MT arrays and chromosomes", "type": "cell-based, mouse", "details": "48 hours of treatment, no recovery after drug removal"}, "Apc^Min/+ MEFs [4]": {"system": "Apc^Min/+ MEFs", "assay": "Trypan blue exclusion viable/dead cell count", "type": "cell-based, mouse", "description": "(§1) Murine embryonic fibroblasts (MEFs) isolated from Apc^Min/+ mice and wild type mice were treated with either vehicle solution of DMSO or varying concentrations of 9-bromonoscapine for 48 hours. Viable and dead cells were counted in triplicate using exclusion of the vital dye, trypan blue. […] This provided a therapeutic window (5-50 μM) for selective killing of Apc^Min/+ MEFs while causing minimal damage to the WT MEFs (FIG. 1A)."}, "WT MEFs [5]": {"system": "WT MEFs", "assay": "Trypan blue exclusion viable/dead cell count", "type": "cell-based, mouse", "details": "48 hours", "description": "as §1"}, "[6]": {"system": "β-catenin levels in Apc^Min/+ MEFs", "assay": "Quantitative western blot of β-catenin levels", "type": "cell-based, mouse"}, "[7]": {"system": "β-catenin activity in Apc^Min/+ MEFs", "assay": "Tcf4/β-catenin responsive luciferase reporter assay", "type": "cell-based, mouse", "source_text": "(§2) HCT116 cells harbor an in-frame deletion of one phosphorylation site (Ser^45) in β-catenin that renders is partially active but has wild type APC. […] Because β-catenin is a negative regulator of CDKs inhibitor p21, p21 levels will rise upon restored downregulation of β-catenin and the cell cycle progression will be inhibited allowing cellular apoptosis (FIG. 2A). […] Hohla et al., Cell Cycle, 2009, 8(19):3149-3156.\n(§3) This decrease in β-catenin levels does translate in reduction of its activity. A reporter gene luciferase under the control of three cloned copies of a conserved Tcf4/β-catenin responsive element was used and compared with an internal control, i.e., another reporter Renilla activity driven by a (β-catenin independent) promoter (CMV) in all three cell types tested (HCT116, DLD, Apc^Min/+ MEFs)."}, "Apc^Min/+ mice": {"system": "Apc^Min/+ mice", "assay": "Intestinal polyp/adenoma study in Apc^Min/+ mice", "type": "in vivo, mouse", "details": "for adenoma load, distal intestine: control 12.5±2.9; for adenoma load, distal intestine / adenoma load, proximal intestine: p<0.01; for adenoma load, proximal intestine: control 32.2±2.3", "description": "Mice were treated either with the vehicle solution alone (control) or 150 mg/kg body weight of 9-bromonoscapine. The mice were analyzed for the number of polyps throughout the gastrointestinal tract of animals. […] Representative bright filed micrographs of hematoxylin and eosine stained 5 μm cross sections from the intestine of vehicle treated control group (FIG. 3A ii, left panel) and 9-bromonoscapine treated group (FIG. 3A ii, right panel) show hyperplastic tissue lesions. In 9-bromonoscapine treated animals, the lesions were not clustered and, when found, seem much more restricted to the individual microvilli and were subdued in appearance (FIG. 3A ii, right panel).\nTo distinguish between neopolyposis post-treatment versus the growth of apparently existing polyps, two treatment regimens were followed. Treated 1: 9-bromonoscapine oral treatment (150 mg/kg body weight) began after 8 weeks of age and continued daily for 12 weeks prior to the experimental end point (in 20 weeks): Treated 2: 9-bromonoscapine oral administration began 21 days after birth at the same dose level for time matched period until the experimental end point. At this time, animals were euthanized and the entire GI tract was dissected out and flushed with PBS. The intestine was then removed from the colon and cut into three equal segments: proximal, medial, and distal. The colon and all three segments of the intestine were cut open longitudinally, stained with methylene blue prior to examination under a dissecting microscope fitted with a micrometer to aid the measurements. The vertex and co-vertex of each elliptical lesion was measured. The area was then calculated by multiplying the vertex, co-vertex and π (3.14). […] There was no visible difference between the groups of treated 1 and treated 2. The colonic adenomas are known to be rare in Apc^Min/+ mouse models."}, "WT MEFs [8]": {"system": "WT MEFs", "assay": "Confocal microscopy of MT arrays and chromosomes", "type": "cell-based, mouse", "details": "reversed 24 hours after withdrawal"}, "[9]": {"system": "cyclin D1, c-Myc, p21, cleaved caspase-3", "assay": "Quantitative western blot of β-catenin target proteins and cleaved caspase-3", "type": "cell-based, mouse", "source_text": "Positively responsive target genes cyclin-D l and c-Myc, and the negatively responsive gene, p21, respond with the restoration of partial loss of function by depleted APC activity after 9-bromonoscapine treatment. […] Furthermore, caspase-3 was activated as measured by the rising levels of cleaved active caspase-3."}, "Apc^Min/+ MEFs [10]": {"system": "Apc^Min/+ MEFs", "assay": "Annexin V-Alexa Fluor488 / propidium iodide apoptosis FACS", "type": "cell-based, mouse", "details": "50 μM, 48 hour treatment", "description": "(§4) Apoptotic cells that externalize the normal internal membrane lipid, phosphatidylserine, were analyzed by binding a fluorescently conjugated PS-binding protein, Annein V-Alexa Fluor488. These cells can be distinguished from the late apoptotic cells that also allow the DNA dye, Propidium iodide (PI) to penetrate the cell membranes allowing intracellular DNA to bind it. As shown in FIG. 1D i-ii, 73% of Apc^Min/+ MEFs were in early and late stages of apoptosis after a 48 hour treatment with 9-bromonoscapine (50 μM) as compared to a modest 21.6% WT MEFs under identical treatment regimen (FIG. 1D i-ii). 9-Bromonoscapine causes a selective cell death (apoptosis) in MEFs isolated from Apc^Min/+ mice when compared to the WT MEFs providing a therapeutic window from 5-50 μM range."}, "WT MEFs [11]": {"system": "WT MEFs", "assay": "Annexin V-Alexa Fluor488 / propidium iodide apoptosis FACS", "type": "cell-based, mouse", "details": "50 μM, 48 hour treatment", "description": "as §4"}, "WT MEFs [12]": {"system": "WT MEFs", "assay": "FACS analysis of DNA content", "type": "cell-based, mouse"}, "[13]": {"system": "β-catenin activity in DLD1 cells", "assay": "Tcf4/β-catenin responsive luciferase reporter assay", "type": "cell-based", "details": "p<0.01", "source_text": "as §2, §3"}, "[14]": {"system": "β-catenin activity in HCT116 cells", "assay": "Tcf4/β-catenin responsive luciferase reporter assay", "type": "cell-based", "details": "8 hours after treatment", "source_text": "as §2, §3"}, "tubulin": {"system": "tubulin", "details": "without changing total microtubule polymer mass; cited from earlier work"}, "[15]": {"details": "drug treated vs vehicle-treated"}, "[16]": {"details": "Treated 1: oral 150 mg/kg daily from 8 weeks of age for 12 weeks"}, "[17]": {"details": "Treated 2: oral 150 mg/kg from 21 days after birth to end point"}}, "note": "Entries after “also recorded” stand apart in the source; their conditions may differ.", "data": [{"smiles": "COc1ccc2c(c1OC)C(=O)OC2C1c2c(c(Br)c3c(c2OC)OCO3)CCN1C", "note": "(stereo not drawn) [9-bromonoscapine, 3-(9-bromoe-4-methoxy-6-methyl-5,6,7,8-tetrahydro-[1,3]dioxolo[4,5-g]isoquinolin-5-yl)-6,7-dimethoxyisobenzofuran-1(3H)-one]", "values": [{"measurement": "cell cycle distribution (DNA content)", "setting": "Apc^Min/+ MEFs [1]", "value": "a decline in G1 and a rise in G2/M"}, {"measurement": "sub-G1 DNA content", "setting": "Apc^Min/+ MEFs [1]; 48 hours of treatment", "value": "distinct shift of cells to a sub-G1 DNA content of <2N"}, {"measurement": "systemic homeostasis (albumin, total protein, glucose) and electrolyte balances (Na+, K+, TCO2)", "setting": "[2]; among the three groups", "value": "not distinguishable profiles"}, {"measurement": "tissue architecture (H&E sections of brain, lung, liver, kidney, thymus, spleen, heart, sciatic nerve)", "setting": "[2]; blinded observations, treated vs vehicle", "value": "did not reveal any significant differences"}, {"measurement": "liver function tests (total bilirubin, alanine transaminase, aspartate aminotransferase, alkaline phosphate levels)", "setting": "[2]; [15]", "value": "similar"}, {"measurement": "renal functions tests (blood urea nitrogen and creatinine levels)", "setting": "[2]; [15]", "value": "similar"}, {"measurement": "WBC, RBC counts, hemoglobin concentration, hematocrit, platelet counts", "setting": "[2]; treated vs vehicle", "value": "no significant differences"}, {"measurement": "mitotic phenotype", "setting": "Apc^Min/+ MEFs [3]", "value": "highly disorganized, often multipolar mitoses"}, {"measurement": "IC50", "setting": "Apc^Min/+ MEFs [4]; Apc^Min/+ MEFs, 48 hours, trypan blue exclusion", "value": 28.6, "unit": "µM"}, {"measurement": "therapeutic window for selective killing of Apc^Min/+ MEFs", "setting": "Apc^Min/+ MEFs [4]; minimal damage to WT MEFs", "value": "5 to 50", "unit": "µM"}, {"measurement": "sensitivity of Apc^Min/+ MEFs relative to WT MEFs", "setting": "Apc^Min/+ MEFs [4]; ratio of IC50 values, 48 hours", "value": 4.7, "unit": "times"}, {"measurement": "IC50", "setting": "WT MEFs [5]", "value": 135, "unit": "µM"}, {"measurement": "β-catenin levels", "setting": "[6]", "value": "two-fold decrease; also recorded: fell to half the original levels"}, {"measurement": "β-catenin activity lowered to", "setting": "[7]; Apc^Min/+ MEFs, p<0.01", "value": 59, "unit": "%"}, {"measurement": "β-catenin activity (in words)", "setting": "[7]; Apc^Min/+ cells", "value": "fell to half the original levels"}, {"measurement": "number and overall areas of intestinal lesions", "setting": "Apc^Min/+ mice; 150 mg/kg body weight, methylene blue stained intestine", "value": "pronounced decrease"}, {"measurement": "apoptotic foci in lesioned tissue (cleaved caspase 3 immunohistochemistry)", "setting": "Apc^Min/+ mice; 150 mg/kg, basal areas of the villus", "value": "additional copious apoptotic foci"}, {"measurement": "adenoma load, distal intestine", "setting": "Apc^Min/+ mice; [16]", "value": "5.2±0.6", "unit": "mm2"}, {"measurement": "adenoma load, proximal intestine", "setting": "Apc^Min/+ mice; [16]", "value": "13.7±1.4", "unit": "mm^2"}, {"measurement": "adenoma load, distal intestine", "setting": "Apc^Min/+ mice; [17]", "value": "5.2±0.8", "unit": "mm2"}, {"measurement": "adenoma load, proximal intestine", "setting": "Apc^Min/+ mice; [17]", "value": "11.8±0.8", "unit": "mm^2"}, {"measurement": "total number of adenomas", "setting": "Apc^Min/+ mice; both treatment groups (Treated 1, Treated 2) vs sham-treated controls, oral 150 mg/kg", "value": "significant decline"}, {"measurement": "number of big lesions (>3 mm^2 and >1 mm^2)", "setting": "Apc^Min/+ mice; size distribution bins, oral 150 mg/kg", "value": "significant decreases"}, {"measurement": "adenoma within the colon", "setting": "Apc^Min/+ mice; treated vs control", "value": "did not reveal any apparent differences"}, {"measurement": "mitotic phenotype", "setting": "WT MEFs [8]", "value": "typical mitotic arrest with bipolar prometaphase spindles"}, {"measurement": "c-Myc protein level", "setting": "[9]", "value": "down"}, {"measurement": "caspase-3 activation (cleaved active caspase-3)", "setting": "[9]", "value": "activated"}, {"measurement": "cyclin D1 protein level", "setting": "[9]", "value": "down"}, {"measurement": "p21 level", "setting": "[9]", "value": "elevated"}, {"measurement": "cells in early and late stages of apoptosis", "setting": "Apc^Min/+ MEFs [10]", "value": 73, "unit": "%"}, {"measurement": "cells in early and late stages of apoptosis", "setting": "WT MEFs [11]", "value": 21.6, "unit": "%"}, {"measurement": "cell cycle distribution (DNA content)", "setting": "WT MEFs [12]", "value": "a decline in G1 and a rise in G2/M"}, {"measurement": "β-catenin activity lowered to", "setting": "[13]", "value": 48, "unit": "%"}, {"measurement": "decline in β-catenin activity", "setting": "[14]", "value": 31, "unit": "%"}, {"measurement": "tubulin binding affinity relative to noscapine", "setting": "tubulin", "value": "higher affinity than noscapine"}]}, {"smiles": "COc1ccc2c(c1OC)C(=O)OC2C1c2c(cc3c(c2OC)OCO3)CCN1C", "note": "(stereo not drawn) [noscapine, 3-(4-methoxy-6-methyl-5,6,7,8-tetrahydro-[1,3]dioxolo[4,5-g]isoquinolin-5-yl)-6,7-dimethoxyisobenzofuran-1(3H)-one]", "values": [{"measurement": "cell cycle distribution (DNA content)", "setting": "WT MEFs [12]", "value": "reversible G2/M arrest"}]}]}
